Calls of active or inactive are those of the source. The calls are words filed in the database; no cut-off is given here.
Key:
HMEC [1] = assay: Cytotoxicity against human HMEC cells assessed as inhibition of cell proliferation measured after 48 hrs by MTT assay; type: cell-based
MCF7 = assay: Anticancer activity against human MCF7 cells assessed as inhibition of cell proliferation measured after 48 hrs by MTT assay; type: functional, cell-based; settings: MCF7, 48 h
MRC5 [2] = assay: Cytotoxicity against human MRC5 cells assessed as inhibition of cell proliferation measured after 48 hrs by MTT assay; type: cell-based; settings: MRC5, 48 h
L02 [3] = assay: Cytotoxicity against human HL7702 cells assessed as inhibition of cell proliferation measured after 48 hrs by MTT assay; type: cell-based; settings: L02, 48 h
HepG2 [4] = assay: Anticancer activity against human HepG2 cells assessed as inhibition of cell proliferation measured after 48 hrs by MTT assay; type: functional, cell-based; settings: HepG2, 48 h
A549 = assay: Anticancer activity against human A549 cells assessed as inhibition of cell proliferation measured after 48 hrs by MTT assay; type: functional, cell-based; settings: A549, 48 h
HeLa = assay: Anticancer activity against human HeLa cells assessed as inhibition of cell proliferation measured after 48 hrs by MTT assay; type: functional, cell-based
[5] = Cytotoxicity against human H8 cells assessed as inhibition of cell proliferation measured after 48 hrs by MTT assay; type: cell-based
[6] = biological target: DNA topoisomerase 2-alpha (Homo sapiens) (UniProt P11388); assay: Inhibition of human topoisomerase-2alpha mediated decatenation using kinetoplast DNA as substrate after 30 mins in presence of ATP by ethidium bromide staining-based UV imaging analysis
[7] = biological target: DNA topoisomerase 2-alpha (Homo sapiens) (UniProt P11388); assay: Inhibition of human topoisomerase-2alpha mediated decatenation at 50 uM using kinetoplast DNA as substrate after 30 mins in presence of ATP by ethidium bromide staining-based UV imaging analysis relative to control
HepG2 [8] = assay: Cell cycle arrest in human HepG2 cells assessed as accumulation at G2/M phase at 5 uM after 24 hrs by propidium staining based flow cytometry analysis; type: functional
HepG2 [9] = assay: Cell cycle arrest in human HepG2 cells assessed as accumulation at G2/M phase at 15 uM after 36 hrs by propidium staining based flow cytometry analysis relative to control; type: functional
L02 [10] = assay: Cell cycle arrest in human HL7702 cells assessed as accumulation at G2/M phase at 5 uM after 30 hrs by propidium staining based flow cytometry analysis relative to control; settings: l02, 30 h
HepG2 [11] = assay: Induction of apoptosis in human HepG2 cells assessed as apoptotic cells at 5 to 15 uM measured after 36 hrs by Annexin-V/propidium iodide staining based flow cytometry analysis relative to control; type: functional
HepG2 [12] = assay: Induction of apoptosis in human HepG2 cells assessed as apoptotic cells at 10 uM measured after 42 hrs by Annexin-V/propidium iodide staining based flow cytometry analysis relative to control; type: functional
L02 [13] = assay: Induction of apoptosis in human HL7702 cells assessed as apoptotic cells at 50 uM measured after 42 hrs by Annexin-V/propidium iodide staining based flow cytometry analysis relative to control; type: cell-based; settings: l02, 42 h
[14] = Acute toxicity in C57BL6 mouse assessed as effect on body weight at 100 mg/kg, ip administered for 20 days; type: organism-based; settings: in vivo, 480 h
[15] = Acute toxicity in ip dosed C57BL6 mouse assessed as mouse survival administered as single dose for 3 days and monitored for 20 days by Bliss method; type: organism-based; settings: in vivo
HepG2 [16] = assay: Antitumor activity against human HepG2 xenografted in ip dosed BALB/c nude mouse administered for 20 days and measured after 20 days by electronic caliper method; type: functional; settings: 480 h
HepG2 [17] = assay: Antitumor activity against human HepG2 xenografted in BALB/c nude mouse assessed as tumor volume at 30 mg/kg, ip administered for 20 days and measured after 20 days by electronic caliper method (reference value: 960.20 +/- 32.10 mm3); type: functional
HepG2 [18] = assay: Antitumor activity against human HepG2 xenografted in BALB/c nude mouse assessed as tumor growth inhibition at 30 mg/kg, ip administered for 20 days and measured after 20 days by electronic caliper method relative to control; type: functional; settings: 480 h, read-out: TGI
[19] = Therapeutic index, ratio of LD50 for acute toxicity in ip dosed C57BL6 mouse assessed as mouse survival administered as single dose for 3 days and monitored for 20 days by Bliss method to ED50 for antitumor activity against human HepG2 xenografted in ip dosed BALB/c nude mouse administered for 20 days and measured after 20 days by electronic caliper method; type: organism-based; settings: in vivo, read-out: TI
[20] = biological target: DNA topoisomerase 2-alpha (Homo sapiens) (UniProt P11388); assay: Inhibition of human topoisomerase-2alpha mediated decatenation at 25 uM using kinetoplast DNA as substrate after 30 mins in presence of ATP by ethidium bromide staining-based UV imaging analysis
DNA topoisomerase II [21] = biological target: T1, DNA topoisomerase II (Homo sapiens, UniProt P11388+Q02880); assay: Poison activity at topoisomerase-2 in human HepG2 cell lysate assessed as topoisomerase-2 band depletion after 3 hrs by Western blot analysis; type: subcellular
DNA topoisomerase II [22] = biological target: T1, DNA topoisomerase II; assay: Poison activity at topoisomerase-2 in human HL7702 cell lysate assessed as reduction in topoisomerase-2 band depletion at 50 uM after 3 hrs by Western blot analysis; type: ADME, subcellular
HepG2 [23] = assay: Induction of DNA damage in human HepG2 cells assessed as increase in H2AX phosphorylation at 20 uM after 24 hrs by Alexa Fluor 488 staining based fluorescence assay; type: functional, cell-based
L02 [24] = assay: Genotoxicity in human HL7702 cells assessed as induction of DNA damage by measuring tail DNA at 50 uM after 24 hrs by alkaline comet assay (reference value: 3 +/- 1.1 %); type: toxicity, cell-based; settings: l02, 24 h
L02 [25] = assay: Induction of DNA damage in human HL7702 cells assessed as effect on gamma-H2AX phosphorylation at 20 uM after 24 hrs by Alexa Fluor 488 staining based fluorescence assay; type: cell-based; settings: l02, 24 h
L02 [26] = assay: Genotoxicity in human HL7702 cells assessed as induction of DNA damage at 50 uM after 24 hrs in combination of teniposide by alkaline comet assay; type: toxicity, cell-based; settings: l02, 24 h
L02 [27] = assay: Cytotoxicity against human HL7702 cells assessed as inhibition of cell proliferation measured after 48 hrs by MTT assay relative to teniposide; type: cell-based; settings: l02, 48 h
MRC5 [28] = assay: Cytotoxicity against human MRC5 cells assessed as inhibition of cell proliferation measured after 48 hrs by MTT assay relative to teniposide; type: cell-based; settings: mrc5, 48 h
HMEC [29] = assay: Cytotoxicity against human HMEC cells assessed as inhibition of cell proliferation measured after 48 hrs by MTT assay relative to teniposide; type: cell-based
Homo sapiens = organism: Homo sapiens; assay: Induction of PI3K/AKT phosphorylation in human HL7702 cells at 25 uM after 30 hrs by Western blot analysis; type: cell-based
L02 [30] = assay: Induction of apoptosis in human HL7702 cells assessed as increase in BAX level at 25 uM after 30 hrs by Western blot analysis; type: cell-based; settings: l02, 30 h
L02 [31] = assay: Induction of apoptosis in human HL7702 cells assessed as increase in PARP cleavage at 25 uM after 30 hrs by Western blot analysis; type: cell-based; settings: l02, 30 h

DNA topoisomerase 2-alpha (Homo sapiens), sequence (P11388 whole entry): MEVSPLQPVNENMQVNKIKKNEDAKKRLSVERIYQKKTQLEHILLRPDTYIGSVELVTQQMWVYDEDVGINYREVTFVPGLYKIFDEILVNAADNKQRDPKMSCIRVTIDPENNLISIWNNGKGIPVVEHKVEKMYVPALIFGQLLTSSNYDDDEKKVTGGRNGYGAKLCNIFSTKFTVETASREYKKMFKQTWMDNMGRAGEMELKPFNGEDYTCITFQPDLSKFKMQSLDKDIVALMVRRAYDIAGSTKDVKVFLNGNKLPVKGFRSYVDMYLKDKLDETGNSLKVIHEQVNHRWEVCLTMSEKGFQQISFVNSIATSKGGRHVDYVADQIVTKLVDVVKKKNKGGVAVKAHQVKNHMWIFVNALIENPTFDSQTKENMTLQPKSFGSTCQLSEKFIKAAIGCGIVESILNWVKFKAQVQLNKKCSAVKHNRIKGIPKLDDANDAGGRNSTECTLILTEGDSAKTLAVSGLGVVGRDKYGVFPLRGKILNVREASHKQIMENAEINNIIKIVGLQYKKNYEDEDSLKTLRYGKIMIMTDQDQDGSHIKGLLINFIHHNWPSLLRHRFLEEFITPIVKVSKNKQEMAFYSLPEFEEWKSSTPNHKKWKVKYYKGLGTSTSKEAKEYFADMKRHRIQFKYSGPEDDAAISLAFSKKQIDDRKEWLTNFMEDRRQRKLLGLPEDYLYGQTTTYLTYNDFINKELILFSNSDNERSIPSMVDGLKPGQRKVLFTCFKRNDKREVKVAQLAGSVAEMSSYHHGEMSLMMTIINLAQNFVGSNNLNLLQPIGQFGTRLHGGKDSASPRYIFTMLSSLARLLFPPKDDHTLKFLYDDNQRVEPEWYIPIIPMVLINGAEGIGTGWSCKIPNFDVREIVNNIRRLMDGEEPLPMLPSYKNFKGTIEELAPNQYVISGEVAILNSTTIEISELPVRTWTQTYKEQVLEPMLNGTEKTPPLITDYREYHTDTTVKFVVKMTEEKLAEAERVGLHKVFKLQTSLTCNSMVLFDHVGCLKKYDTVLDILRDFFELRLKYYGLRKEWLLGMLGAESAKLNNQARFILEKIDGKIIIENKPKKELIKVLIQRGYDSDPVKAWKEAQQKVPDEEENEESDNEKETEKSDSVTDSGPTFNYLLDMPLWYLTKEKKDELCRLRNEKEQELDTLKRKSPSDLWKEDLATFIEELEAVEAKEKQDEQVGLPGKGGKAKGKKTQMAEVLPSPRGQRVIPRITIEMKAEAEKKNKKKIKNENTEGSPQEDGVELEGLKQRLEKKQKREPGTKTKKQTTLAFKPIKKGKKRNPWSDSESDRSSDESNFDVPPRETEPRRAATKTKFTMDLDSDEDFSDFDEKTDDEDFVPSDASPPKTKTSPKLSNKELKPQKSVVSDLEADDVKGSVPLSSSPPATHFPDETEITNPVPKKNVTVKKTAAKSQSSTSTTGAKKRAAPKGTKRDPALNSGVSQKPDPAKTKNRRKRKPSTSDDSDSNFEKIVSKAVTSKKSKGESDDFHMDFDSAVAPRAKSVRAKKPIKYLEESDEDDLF

COc1cc([C@@H]2c3cc4c(cc3[C@@H](O[C@@H]3O[C@@H]5CO[C@@H](c6cccs6)O[C@H]5[C@H](OC(=O)CSc5nc6cc(F)ccc6s5)[C@H]3OC(=O)CSc3nc5cc(F)ccc5s3)[C@H]3COC(=O)[C@H]23)OCO4)cc(OC)c1O
IC50 (HMEC [1]): 24.6 µM
IC50 (MCF7): 151 µM
IC50 (MRC5 [2]): 25.6 µM
IC50 (L02 [3]): 22.1 µM
IC50 (HepG2 [4]): 38.4 µM
IC50 (A549): 118 µM
IC50 (HeLa): 172 µM
IC50 [5]: 20.3 µM

COc1cc([C@@H]2c3cc4c(cc3[C@@H](O[C@@H]3O[C@@H]5CO[C@@H](c6cccs6)O[C@H]5[C@H](O)[C@H]3OC(=O)CSc3nc5cc(F)ccc5s3)[C@H]3COC(=O)[C@H]23)OCO4)cc(OC)c1O
IC50 (HMEC [1]): 13.5 µM
IC50 (MCF7): 3.9 µM
IC50 (MRC5 [2]): 12.4 µM
IC50 (L02 [3]): 18.5 µM
IC50 (HepG2 [4]): 2 µM
IC50 (A549): 1.1 µM
IC50 (HeLa): 1.5 µM
IC50 [5]: 22.5 µM

COc1cc([C@@H]2c3cc4c(cc3[C@@H](O[C@@H]3O[C@@H]5CO[C@@H](c6cccs6)O[C@H]5[C@H](O)[C@H]3OC(=O)CSc3nc5cc(F)ccc5o3)[C@H]3COC(=O)[C@H]23)OCO4)cc(OC)c1O
IC50 (HMEC [1]): 14.3 µM
IC50 (MCF7): 4 µM
IC50 (MRC5 [2]): 15.8 µM
IC50 (L02 [3]): 17.3 µM
IC50 (HepG2 [4]): 1.7 µM
IC50 (A549): 2.7 µM
IC50 (HeLa): 1 µM
IC50 [5]: 21.3 µM

COc1cc([C@@H]2c3cc4c(cc3[C@@H](O[C@@H]3O[C@@H]5CO[C@@H](c6cccs6)O[C@H]5[C@H](O)[C@H]3NC(=O)CSc3nc5cc(F)ccc5s3)[C@H]3COC(=O)[C@H]23)OCO4)cc(OC)c1O
IC50 (HMEC [1]): 160 µM
IC50 (MCF7): 142 µM
IC50 (MRC5 [2]): 123 µM
IC50 (L02 [3]): 156 µM
IC50 (HepG2 [4]): 120 µM
IC50 (A549): 122 µM
IC50 (HeLa): 134 µM
IC50 [5]: 140 µM

COc1cc([C@@H]2c3cc4c(cc3[C@@H](O[C@@H]3O[C@@H]5CO[C@@H](c6cccs6)O[C@H]5[C@H](OC(=O)CSc5nc6cc(F)ccc6o5)[C@H]3O)[C@H]3COC(=O)[C@H]23)OCO4)cc(OC)c1O
IC50 (HMEC [1]): 14.2 µM
IC50 (MCF7): 4.6 µM
IC50 (MRC5 [2]): 14.9 µM
IC50 (L02 [3]): 16.1 µM
IC50 (HepG2 [4]): 2.1 µM
IC50 (A549): 4.8 µM
IC50 (HeLa): 2 µM
IC50 [5]: 15.9 µM

COc1cc([C@@H]2c3cc4c(cc3[C@@H](O[C@@H]3O[C@@H]5CO[C@@H](c6cccs6)O[C@H]5[C@H](OC(=O)CSc5nc6cc(F)ccc6o5)[C@H]3NC(=O)CSc3nc5cc(F)ccc5o3)[C@H]3COC(=O)[C@H]23)OCO4)cc(OC)c1O
IC50 (HMEC [1]): 125 µM
IC50 (MCF7): 12.3 µM
IC50 (MRC5 [2]): 124 µM
IC50 (L02 [3]): 123 µM
inhibition [6]: Dose-dependent effect
inhibition [7]: 100%
IC50 (HepG2 [4]): 11.1 µM
IC50 (A549): 14.9 µM
IC50 (HeLa): 155 µM
IC50 [5]: 123 µM
Activity (HepG2 [8]): inactive
Activity (HepG2 [9]): 76%
Activity (L02 [10]): 40%
Activity (HepG2 [11]): 30 - 55%
Activity (HepG2 [12]): 55%
Activity (L02 [13]): 30%
Activity [14]: Non-Toxic
LD50 at 480 h [15]: 168 mg/kg
ED50 (HepG2 [16]): 34.7 mg/kg
Activity (HepG2 [17]): 163.25 mm3
inhibition in vivo at 30 mg/kg (HepG2 [18]): 62%
selectivity ratio at 20 days [19]: 4.82
inhibition [20]: Active
IC50 (DNA topoisomerase II [21]): 124.2 µM
Activity (DNA topoisomerase II [22]): Not Active
Activity (HepG2 [23]): Active
Activity (L02 [24]): 8.4%
Activity (L02 [25]): Toxic
Activity (L02 [26]): Toxic
fold change (FC) (L02 [27]): 10
fold change (FC) (MRC5 [28]): 10
fold change (FC) (HMEC [29]): 10
Activity (Homo sapiens): Active
Activity (L02 [30]): Non-Toxic
Activity (L02 [31]): Non-Toxic

COc1cc([C@@H]2c3cc4c(cc3[C@@H](O[C@@H]3O[C@@H]5CO[C@@H](c6cccs6)O[C@H]5[C@H](O)[C@H]3NC(=O)CSc3nc5cc(F)ccc5o3)[C@H]3COC(=O)[C@H]23)OCO4)cc(OC)c1O
IC50 (HMEC [1]): 156 µM
IC50 (MCF7): 157 µM
IC50 (MRC5 [2]): 133 µM
IC50 (L02 [3]): 144 µM
IC50 (HepG2 [4]): 121 µM
IC50 (A549): 122 µM
IC50 (HeLa): 158 µM
IC50 [5]: 147 µM

COc1cc([C@@H]2c3cc4c(cc3[C@@H](O[C@@H]3O[C@@H]5CO[C@@H](c6cccs6)O[C@H]5[C@H](OC(=O)CSc5nc6cc(F)ccc6o5)[C@H]3OC(=O)CSc3nc5cc(F)ccc5o3)[C@H]3COC(=O)[C@H]23)OCO4)cc(OC)c1O
IC50 (HMEC [1]): 23.4 µM
IC50 (MCF7): 30.5 µM
IC50 (MRC5 [2]): 25.4 µM
IC50 (L02 [3]): 20.4 µM
IC50 (HepG2 [4]): 15.6 µM
IC50 (A549): 11.5 µM
IC50 (HeLa): 50.3 µM
IC50 [5]: 20.4 µM

COc1cc([C@@H]2c3cc4c(cc3[C@@H](O[C@@H]3O[C@@H]5CO[C@@H](c6cccs6)O[C@H]5[C@H](OC(=O)CSc5nc6cc(F)ccc6s5)[C@H]3O)[C@H]3COC(=O)[C@H]23)OCO4)cc(OC)c1O
IC50 (HMEC [1]): 14.3 µM
IC50 (MCF7): 5.6 µM
IC50 (MRC5 [2]): 14.3 µM
IC50 (L02 [3]): 16.4 µM
IC50 (HepG2 [4]): 2.7 µM
IC50 (A549): 3.5 µM
IC50 (HeLa): 2.5 µM
IC50 [5]: 17.4 µM
